According to the NIST ThermoML archive (doi:10.1021/je200811n):

Conditions: Hot wire method

C=C(F)C(F)(F)F [2,3,3,3-tetrafluoro-1-propene]
Conditions	thermal conductivity [W/m/K]
241.92 K, 6085 kPa, Liquid	0.08525
241.92 K, 10976 kPa, Liquid	0.08707
241.93 K, 15764 kPa, Liquid	0.08965
241.94 K, 69 kPa, Gas	0.00942
241.95 K, 77 kPa, Gas	0.00944
241.95 K, 20987 kPa, Liquid	0.09158
241.97 K, 86 kPa, Gas	0.00944
242 K, 880 kPa, Liquid	0.08218
242.01 K, 6088 kPa, Liquid	0.08496
242.01 K, 10981 kPa, Liquid	0.08718
242.02 K, 15753 kPa, Liquid	0.08918
242.19 K, 69 kPa, Gas	0.00931
242.2 K, 78 kPa, Gas	0.00934
242.22 K, 87 kPa, Gas	0.00935
242.34 K, 883 kPa, Liquid	0.08243
242.34 K, 10985 kPa, Liquid	0.08732
242.34 K, 15757 kPa, Liquid	0.08916
242.35 K, 6087 kPa, Liquid	0.08514
242.35 K, 20980 kPa, Liquid	0.09106
242.35 K, 21022 kPa, Liquid	0.09102
242.46 K, 15754 kPa, Liquid	0.08876
242.47 K, 69 kPa, Gas	0.00926
242.47 K, 78 kPa, Gas	0.00926
242.47 K, 886 kPa, Liquid	0.08219
242.47 K, 6087 kPa, Liquid	0.08483
242.47 K, 10989 kPa, Liquid	0.08709
242.5 K, 87 kPa, Gas	0.00928
242.52 K, 87 kPa, Gas	0.00925
242.54 K, 68 kPa, Gas	0.00927
242.54 K, 76 kPa, Gas	0.00929
242.8 K, 20976 kPa, Liquid	0.09105
242.81 K, 10986 kPa, Liquid	0.08711
242.81 K, 15750 kPa, Liquid	0.08896
242.81 K, 21021 kPa, Liquid	0.09106
242.83 K, 6086 kPa, Liquid	0.08481
242.85 K, 891 kPa, Liquid	0.08226
242.88 K, 87 kPa, Gas	0.00926
242.9 K, 77 kPa, Gas	0.00929
242.91 K, 68 kPa, Gas	0.0093
242.94 K, 15756 kPa, Liquid	0.08889
242.96 K, 10985 kPa, Liquid	0.08695
242.98 K, 6086 kPa, Liquid	0.08445
243 K, 892 kPa, Liquid	0.082
243.28 K, 86 kPa, Gas	0.00928
243.29 K, 21014 kPa, Liquid	0.09132
243.3 K, 77 kPa, Gas	0.0093
243.3 K, 20966 kPa, Liquid	0.09102
243.31 K, 69 kPa, Gas	0.00933
243.32 K, 10987 kPa, Liquid	0.08693
243.32 K, 15749 kPa, Liquid	0.0891
243.35 K, 6084 kPa, Liquid	0.08459
243.38 K, 894 kPa, Liquid	0.08224
243.47 K, 15756 kPa, Liquid	0.08884
243.5 K, 10983 kPa, Liquid	0.08672
243.53 K, 6087 kPa, Liquid	0.0843
243.57 K, 898 kPa, Liquid	0.08198
243.7 K, 86 kPa, Gas	0.00931
243.73 K, 78 kPa, Gas	0.00931
243.75 K, 69 kPa, Gas	0.00935
243.84 K, 20954 kPa, Liquid	0.09109
243.85 K, 21009 kPa, Liquid	0.09114
243.87 K, 15753 kPa, Liquid	0.08885
243.9 K, 10980 kPa, Liquid	0.0868
243.94 K, 6082 kPa, Liquid	0.08438
243.98 K, 898 kPa, Liquid	0.08174
244.07 K, 15757 kPa, Liquid	0.08866
244.11 K, 10979 kPa, Liquid	0.08646
244.16 K, 86 kPa, Gas	0.00935
244.16 K, 6088 kPa, Liquid	0.08418
244.2 K, 78 kPa, Gas	0.00935
244.21 K, 900 kPa, Liquid	0.08153
244.22 K, 69 kPa, Gas	0.00937
251.4 K, 100 kPa, Gas	0.0102
251.41 K, 121 kPa, Gas	0.01025
251.42 K, 129 kPa, Gas	0.01024
251.64 K, 100 kPa, Gas	0.01009
251.65 K, 121 kPa, Gas	0.01014
251.66 K, 129 kPa, Gas	0.01016
251.9 K, 121 kPa, Gas	0.00997
251.91 K, 100 kPa, Gas	0.01002
251.91 K, 121 kPa, Gas	0.01007
251.91 K, 130 kPa, Gas	0.01
251.92 K, 129 kPa, Gas	0.01009
251.93 K, 100 kPa, Gas	0.00998
252.23 K, 121 kPa, Gas	0.00999
252.23 K, 130 kPa, Gas	0.00999
252.28 K, 100 kPa, Gas	0.01003
252.6 K, 122 kPa, Gas	0.01002
252.6 K, 130 kPa, Gas	0.01
252.67 K, 100 kPa, Gas	0.01006
253 K, 129 kPa, Gas	0.01005
253.01 K, 121 kPa, Gas	0.01006
253.09 K, 100 kPa, Gas	0.01007
253.43 K, 129 kPa, Gas	0.01006
253.45 K, 121 kPa, Gas	0.01008
253.53 K, 100 kPa, Gas	0.0101
261.38 K, 995 kPa, Liquid	0.07662
261.4 K, 996 kPa, Liquid	0.07661
261.41 K, 6311 kPa, Liquid	0.07964
261.48 K, 992 kPa, Liquid	0.07655
261.48 K, 996 kPa, Liquid	0.07656
261.5 K, 6309 kPa, Liquid	0.07953
261.84 K, 987 kPa, Liquid	0.07643
261.85 K, 6313 kPa, Liquid	0.07948
261.87 K, 11445 kPa, Liquid	0.08189
261.88 K, 21642 kPa, Liquid	0.0867
261.96 K, 983 kPa, Liquid	0.07514
261.97 K, 1005 kPa, Liquid	0.07519
261.97 K, 6311 kPa, Liquid	0.07846
261.97 K, 11446 kPa, Liquid	0.0813
261.98 K, 21635 kPa, Liquid	0.08614
262.35 K, 11445 kPa, Liquid	0.08085
262.35 K, 16435 kPa, Liquid	0.08308
262.35 K, 21632 kPa, Liquid	0.08538
262.36 K, 6309 kPa, Liquid	0.0784
262.37 K, 990 kPa, Liquid	0.0754
262.38 K, 999 kPa, Liquid	0.07563
262.48 K, 21630 kPa, Liquid	0.08542
262.49 K, 11446 kPa, Liquid	0.08082
262.49 K, 16441 kPa, Liquid	0.08301
262.51 K, 984 kPa, Liquid	0.07532
262.51 K, 6308 kPa, Liquid	0.07834
262.53 K, 1003 kPa, Liquid	0.0754
262.87 K, 94 kPa, Gas	0.01103
262.87 K, 141 kPa, Gas	0.01112
262.87 K, 180 kPa, Gas	0.01121
262.87 K, 21632 kPa, Liquid	0.08568
262.89 K, 16441 kPa, Liquid	0.0831
262.9 K, 11444 kPa, Liquid	0.08074
262.93 K, 6308 kPa, Liquid	0.07833
262.95 K, 981 kPa, Liquid	0.07547
262.97 K, 1000 kPa, Liquid	0.07554
263.04 K, 21629 kPa, Liquid	0.08528
263.06 K, 16439 kPa, Liquid	0.0831
263.08 K, 11447 kPa, Liquid	0.08051
263.1 K, 94 kPa, Gas	0.01092
263.1 K, 139 kPa, Gas	0.01099
263.1 K, 178 kPa, Gas	0.01109
263.11 K, 6306 kPa, Liquid	0.07818
263.14 K, 981 kPa, Liquid	0.07525
263.15 K, 1006 kPa, Liquid	0.07526
263.3 K, 186 kPa, Gas	0.01073
263.33 K, 145 kPa, Gas	0.01079
263.34 K, 176 kPa, Gas	0.01103
263.35 K, 137 kPa, Gas	0.01093
263.36 K, 94 kPa, Gas	0.01083
263.41 K, 93 kPa, Gas	0.01084
263.45 K, 21625 kPa, Liquid	0.0853
263.47 K, 16441 kPa, Liquid	0.08318
263.51 K, 11446 kPa, Liquid	0.08071
263.55 K, 6310 kPa, Liquid	0.07796
263.59 K, 977 kPa, Liquid	0.0751
263.61 K, 184 kPa, Gas	0.01083
263.61 K, 1002 kPa, Liquid	0.07516
263.65 K, 21628 kPa, Liquid	0.08509
263.66 K, 143 kPa, Gas	0.01082
263.68 K, 16436 kPa, Liquid	0.08284
263.72 K, 11448 kPa, Liquid	0.08052
263.76 K, 94 kPa, Gas	0.01087
263.77 K, 6312 kPa, Liquid	0.07776
263.83 K, 978 kPa, Liquid	0.07472
263.83 K, 1003 kPa, Liquid	0.0748
263.97 K, 181 kPa, Gas	0.01086
264.03 K, 141 kPa, Gas	0.01087
264.1 K, 21626 kPa, Liquid	0.08524
264.13 K, 94 kPa, Gas	0.01089
264.14 K, 16440 kPa, Liquid	0.08287
264.18 K, 11446 kPa, Liquid	0.08043
264.33 K, 21622 kPa, Liquid	0.08504
264.34 K, 179 kPa, Gas	0.01089
264.38 K, 16435 kPa, Liquid	0.08267
264.41 K, 140 kPa, Gas	0.01091
264.42 K, 11443 kPa, Liquid	0.08017
264.55 K, 94 kPa, Gas	0.01091
264.75 K, 177 kPa, Gas	0.01092
264.83 K, 138 kPa, Gas	0.01094
264.99 K, 94 kPa, Gas	0.01095
271.81 K, 106 kPa, Gas	0.01176
271.82 K, 144 kPa, Gas	0.01183
271.83 K, 200 kPa, Gas	0.01195
272.04 K, 105 kPa, Gas	0.01163
272.04 K, 200 kPa, Gas	0.01186
272.05 K, 143 kPa, Gas	0.0117
272.22 K, 246 kPa, Gas	0.01157
272.22 K, 271 kPa, Gas	0.01155
272.24 K, 200 kPa, Gas	0.01151
272.28 K, 200 kPa, Gas	0.01178
272.29 K, 104 kPa, Gas	0.01154
272.29 K, 148 kPa, Gas	0.01151
272.3 K, 141 kPa, Gas	0.01161
272.34 K, 108 kPa, Gas	0.01153
272.5 K, 272 kPa, Gas	0.01161
272.54 K, 200 kPa, Gas	0.01154
272.6 K, 146 kPa, Gas	0.01157
272.67 K, 107 kPa, Gas	0.01162
272.83 K, 272 kPa, Gas	0.0116
272.84 K, 263 kPa, Gas	0.01161

Liquid
Conditions	thermal conductivity [W/m/K]
243.15 K	0.08189
253.15 K	0.07836
263.15 K	0.07493
